Source: US11439641B2, “Pyrimidine JAK inhibitors for the treatment of skin diseases” (THERAVANCE BIOPHARMA R&D IP, LLC, priority 2019, dated 2022)
Values after ≈ are worked out from the molar mass of the structure shown.

Key:
JAK1 = JAK1 (Homo sapiens (Human), UniProt P23458); assay: Biochemical JAK and Tyk2 Kinase Assays (LanthaScreen), JAK1; conditions: 25 μM ATP (Km), pIC50 converted to pKi by Cheng-Prusoff
JAK2 = JAK2 (Homo sapiens (Human), UniProt O60674); assay: Biochemical JAK and Tyk2 Kinase Assays (LanthaScreen), JAK2; conditions: 3 μM ATP (Km); pIC50 converted to pKi by Cheng-Prusoff
JAK2, sequence (O60674 whole entry): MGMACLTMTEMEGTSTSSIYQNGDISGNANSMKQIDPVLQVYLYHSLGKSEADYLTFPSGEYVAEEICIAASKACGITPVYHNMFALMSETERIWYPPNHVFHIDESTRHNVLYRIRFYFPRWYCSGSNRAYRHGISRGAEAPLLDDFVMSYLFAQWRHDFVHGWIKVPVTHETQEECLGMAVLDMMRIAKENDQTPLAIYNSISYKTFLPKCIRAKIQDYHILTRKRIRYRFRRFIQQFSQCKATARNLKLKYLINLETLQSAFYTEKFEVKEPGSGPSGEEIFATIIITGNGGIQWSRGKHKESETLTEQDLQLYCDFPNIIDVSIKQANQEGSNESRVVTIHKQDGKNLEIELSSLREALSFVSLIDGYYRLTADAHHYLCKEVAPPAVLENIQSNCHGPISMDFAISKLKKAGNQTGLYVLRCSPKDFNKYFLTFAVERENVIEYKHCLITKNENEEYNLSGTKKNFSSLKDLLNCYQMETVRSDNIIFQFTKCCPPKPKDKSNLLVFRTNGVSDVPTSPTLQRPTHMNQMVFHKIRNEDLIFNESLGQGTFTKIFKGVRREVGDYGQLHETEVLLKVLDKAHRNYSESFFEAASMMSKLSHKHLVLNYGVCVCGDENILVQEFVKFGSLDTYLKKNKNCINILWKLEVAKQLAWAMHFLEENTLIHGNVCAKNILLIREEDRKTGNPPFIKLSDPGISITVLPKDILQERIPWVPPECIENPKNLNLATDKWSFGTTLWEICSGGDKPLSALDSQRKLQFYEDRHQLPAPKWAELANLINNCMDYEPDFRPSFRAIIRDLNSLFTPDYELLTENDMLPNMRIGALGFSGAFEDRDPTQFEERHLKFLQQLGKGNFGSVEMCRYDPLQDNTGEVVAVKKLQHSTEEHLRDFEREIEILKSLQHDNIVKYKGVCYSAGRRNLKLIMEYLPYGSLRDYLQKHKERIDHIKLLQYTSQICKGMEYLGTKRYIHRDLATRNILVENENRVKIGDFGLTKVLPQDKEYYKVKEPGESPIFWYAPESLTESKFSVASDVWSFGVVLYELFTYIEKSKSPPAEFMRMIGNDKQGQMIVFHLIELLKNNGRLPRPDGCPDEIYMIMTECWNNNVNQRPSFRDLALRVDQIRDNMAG
Protocol: (§1) Assay 1: Biochemical JAK and Tyk2 Kinase Assays
(§2) A panel of four LanthaScreen JAK biochemical assays (JAK1, 2, 3 and Tyk2) were carried in a common kinase reaction buffer (50 mM HEPES, pH 7.5, 0.01% Brij-35, 10 mM MgCl2, and 1 mM EGTA). Recombinant GST-tagged JAK enzymes and a GFP-tagged STAT1 peptide substrate were obtained from Life Technologies.
(§3) Serially or discretely diluted compounds were pre-incubated with each of the four JAK enzymes and the substrate in white 384-well microplates (Corning) at ambient temperature for 1 h. ATP was subsequently added to initiate the kinase reactions in 10 μL total volume, with 1% DMSO. The final enzyme concentrations for JAK1, 2, 3 and Tyk2 are 4.2 nM, 0.1 nM, 1 nM, and 0.25 nM respectively; the corresponding Km ATP concentrations used are 25 μM, 3 μM, 1.6 μM, and 10 μM; while the substrate concentration is 200 nM for all four assays. Kinase reactions were allowed to proceed for 1 hour at ambient temperature before a 10 μL preparation of EDTA (10 mM final concentration) and Tb-anti-pSTAT1 (pTyr701) antibody (Life Technologies, 2 nM final concentration) in TR-FRET dilution buffer (Life Technologies) was added. The plates were allowed to incubate at ambient temperature for 1 h before being read on the EnVision reader (Perkin Elmer). Emission ratio signals (520 nm/495 nm) were recorded and utilized to calculate the percent inhibition values based on DMSO and background controls.
(§4) For dose-response analysis, percent inhibition data were plotted vs. compound concentrations, and IC50 values were determined from a 4-parameter robust fit model with the Prism software (GraphPad Software). Results were expressed as pIC50 (negative logarithm of IC50) and subsequently converted to pKi (negative logarithm of dissociation constant, Ki) using the Cheng-Prusoff equation.

JAK3 = JAK3 (Homo sapiens (Human), UniProt P52333); assay: Biochemical JAK and Tyk2 Kinase Assays (LanthaScreen), JAK3; conditions: 1.6 μM ATP (Km), pIC50 converted to pKi by Cheng-Prusoff; for Ki: read-out: JAK 3 (pKi) (converted)
JAK3, sequence (P52333 whole entry): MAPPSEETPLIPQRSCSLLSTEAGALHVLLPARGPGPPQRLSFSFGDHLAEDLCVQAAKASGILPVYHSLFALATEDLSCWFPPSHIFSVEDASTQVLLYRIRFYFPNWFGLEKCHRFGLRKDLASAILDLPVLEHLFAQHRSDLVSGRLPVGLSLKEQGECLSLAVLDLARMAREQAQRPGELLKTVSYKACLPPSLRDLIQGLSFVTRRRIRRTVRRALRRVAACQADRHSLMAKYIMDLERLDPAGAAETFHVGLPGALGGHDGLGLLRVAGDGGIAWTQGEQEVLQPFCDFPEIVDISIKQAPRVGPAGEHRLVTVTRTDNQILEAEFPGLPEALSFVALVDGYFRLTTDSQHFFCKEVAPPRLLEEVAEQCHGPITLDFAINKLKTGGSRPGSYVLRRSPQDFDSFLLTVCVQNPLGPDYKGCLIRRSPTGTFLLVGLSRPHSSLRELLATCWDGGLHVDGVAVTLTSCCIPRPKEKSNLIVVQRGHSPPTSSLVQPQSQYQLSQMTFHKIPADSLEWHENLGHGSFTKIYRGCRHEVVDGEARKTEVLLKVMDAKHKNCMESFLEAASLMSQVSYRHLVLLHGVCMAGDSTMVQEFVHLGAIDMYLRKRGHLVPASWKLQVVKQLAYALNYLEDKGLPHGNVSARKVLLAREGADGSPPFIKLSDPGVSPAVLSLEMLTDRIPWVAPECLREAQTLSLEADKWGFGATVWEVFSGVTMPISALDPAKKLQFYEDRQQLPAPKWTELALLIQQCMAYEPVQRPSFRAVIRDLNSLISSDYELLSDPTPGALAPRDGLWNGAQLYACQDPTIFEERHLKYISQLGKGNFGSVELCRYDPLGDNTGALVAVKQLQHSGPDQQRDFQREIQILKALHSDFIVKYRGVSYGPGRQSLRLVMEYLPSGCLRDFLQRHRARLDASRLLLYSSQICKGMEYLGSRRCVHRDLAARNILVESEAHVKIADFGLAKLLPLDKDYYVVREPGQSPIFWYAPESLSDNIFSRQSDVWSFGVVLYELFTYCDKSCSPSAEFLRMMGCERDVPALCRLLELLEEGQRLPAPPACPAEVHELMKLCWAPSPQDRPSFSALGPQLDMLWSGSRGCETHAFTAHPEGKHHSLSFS

Tyk2 = Tyk2 (Homo sapiens (Human), UniProt P29597); assay: Biochemical JAK and Tyk2 Kinase Assays (LanthaScreen), Tyk2; conditions: 10 μM ATP (Km), pIC50 converted to pKi by Cheng-Prusoff; for Ki: read-out: Tyk 2 (pKi) (converted)
Tyk2, sequence (P29597 whole entry): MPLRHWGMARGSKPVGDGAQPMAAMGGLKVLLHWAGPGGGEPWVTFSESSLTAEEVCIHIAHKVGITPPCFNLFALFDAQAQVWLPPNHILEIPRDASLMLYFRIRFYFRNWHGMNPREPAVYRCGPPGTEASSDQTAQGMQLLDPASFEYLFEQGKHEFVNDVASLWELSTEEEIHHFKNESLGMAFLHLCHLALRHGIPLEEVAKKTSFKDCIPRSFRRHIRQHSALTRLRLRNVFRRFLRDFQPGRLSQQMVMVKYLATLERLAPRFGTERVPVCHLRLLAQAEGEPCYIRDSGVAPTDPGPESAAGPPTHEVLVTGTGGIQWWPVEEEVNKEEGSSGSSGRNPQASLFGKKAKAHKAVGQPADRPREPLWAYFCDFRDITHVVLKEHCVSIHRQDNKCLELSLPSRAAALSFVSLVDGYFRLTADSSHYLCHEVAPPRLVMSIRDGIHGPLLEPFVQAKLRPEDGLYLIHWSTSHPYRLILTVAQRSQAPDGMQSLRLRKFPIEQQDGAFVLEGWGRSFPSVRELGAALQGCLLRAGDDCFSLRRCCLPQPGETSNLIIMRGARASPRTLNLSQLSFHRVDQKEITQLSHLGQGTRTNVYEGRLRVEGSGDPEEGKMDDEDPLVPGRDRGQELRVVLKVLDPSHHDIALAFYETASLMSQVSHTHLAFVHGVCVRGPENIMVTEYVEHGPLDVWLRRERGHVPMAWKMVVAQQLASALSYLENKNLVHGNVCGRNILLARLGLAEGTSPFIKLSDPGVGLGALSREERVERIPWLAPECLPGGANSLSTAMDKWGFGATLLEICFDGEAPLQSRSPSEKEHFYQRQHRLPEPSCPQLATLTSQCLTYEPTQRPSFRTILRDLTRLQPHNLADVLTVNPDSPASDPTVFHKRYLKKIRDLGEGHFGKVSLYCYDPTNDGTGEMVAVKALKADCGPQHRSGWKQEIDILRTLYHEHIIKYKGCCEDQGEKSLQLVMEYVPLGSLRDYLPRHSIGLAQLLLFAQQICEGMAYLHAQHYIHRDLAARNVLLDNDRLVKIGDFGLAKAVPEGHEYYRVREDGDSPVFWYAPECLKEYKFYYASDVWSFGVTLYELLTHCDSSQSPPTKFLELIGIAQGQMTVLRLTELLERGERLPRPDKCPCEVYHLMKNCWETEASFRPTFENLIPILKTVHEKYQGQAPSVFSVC
Protocol: as §1, §2, §3, §4

physchem = conditions: thermodynamic from solid
Protocol: (§5) Assay 6: Solubility Assay in Organic Excipients
(§6) The purpose of this assay was to quantify the solubility of test compounds in different organic excipients such as diisopropyl adipate, medium chain triglycerides (MCT), propylene glycol, and polyethylene glycol. The assay required 80 μL of 100 mM DMSO test compound solution per desired excipient in addition to 40 μL required to make a test standard.
(§7) The standard was created by diluting 40 μL of 100 mM DMSO compound stock solution into 160 μL of methanol and was shaken for five minutes to ensure solution uniformity. […] This 20,000 μM solution was run on an Agilent 1260 LC-MS system by injecting 0.2 μL in order to obtain the peak area. For the test solutions, 80 μL of 100 mM DMSO compound stock solution, per excipient, were dried down into a powder overnight. Once in powder form, 400 μL of the desired excipient was added to the powder and allowed to shake vigorously for four hours. The maximum theoretical concentration for this sample solution was 20,000 μM. After four hours of shaking, the samples were centrifuged for 10 minutes at 3,000 RPM before injecting 0.2 μL on the same Agilent 1260 LC-MS system to obtain the peak area.

Caco-2 cell monolayer = assay: Caco-2 Permeation Assay; format: in vitro ADME; conditions: Papp, 5 μM compound; for Cacoverap Kp 10^−6 cm/sec: A→B in the presence of 25 μM verapamil (P-gp inhibitor); for Caco Kp 10^−6 cm/sec: apical to basal (A→B)
Protocol: Assay 3: Caco-2 Permeation Assay
The Caco 2 permeability assay was used as a surrogate for assessment of skin permeability. This assay measures the in vitro permeability across a monolayer of Caco-2 cells, which morphologically and functionally resemble the enterocytes of the small intestine.
CacoReady 24-well transwell plates were obtained from ADMEcell (Alameda, Calif.). The compounds were evaluated at a concentration of 5 μM from 10 mM DMSO stock solutions in duplicate (n=2). Transport in the apical to basal (A→B) direction was determined in Caco 2 cell monolayers. From these values the apparent permeability (Papp) was calculated. To inform on the potential of the compound to be a P-gp substrate, the transport of the compound across the Caco-2 cell monolayer was also determined in the presence of 25 μM of the known P-gp inhibitor verapamil (Yusa and Tsuruo et al., Cancer Research, vol. 49, no. 18, 1989, pp. 5002-06).
Caco-2 culture media consisted of standard filtered DMEM, FCS 10%, L-Glutamine 1%, and PenStrep 1%. The experiment was conducted at 37° C. and in a CO2 (5%) incubator. The basal assay plate was prepared by adding 750 pt of transport buffer to A→B wells. A CacoReady™ plate was prepared by removing the Caco-2 media from the apical wells and replacing with fresh transport media (200 pt repeated for a total of 3 washes). Blank media (200 μL) was then replaced with diluted compound. To begin the incubation, the basal plate was removed from the incubator and the apical section was added on top of it. Samples were collected from the apical and basal compartments for time zero (t0). Samples were collected again after 120 minutes (t120) from the apical and basal compartments. All samples were diluted and prepared for bioanalysis by LC-MS/MS. The permeability coefficients (Papp, mean A to B) and (Papp, mean A to B+Verapamil) in cm/sec were calculated as dQ (flux)/(dt×Area×concentration).
In this assay, a compound with a Papp value of more than about 12×10−6 cm/sec is considered to have high permeability.

Aqueous Solubility Assay = conditions: PBS buffer pH 7.4; maximum upper limit 1,000 μM
Protocol: Assay 5: Aqueous Solubility Assay
The purpose of this assay was to quantify the solubility of test compounds in pH 4 and pH 7.4 PBS buffers. The assay required 40 μL of 10 mM DMSO test compound solution per desired buffer in addition to 20 μL required to make a test standard. For example, to test a compound in both buffers, 100 μL (2*40 μL+20 μL) of 10 mM DMSO compound stock solution was required.
The standard was created by diluting 20 μL of 10 mM DMSO compound stock solution into 180 μL of methanol and was shaken for five minutes to ensure solution uniformity. […] This 1,000 μM solution was run on an Agilent 1260 LC-MS system by injecting 2 μL in order to obtain the peak area. For the test solutions, 40 μL of 10 mM DMSO compound stock solution, per PBS buffer condition, were dried down into a powder overnight. Once in powder form, 400 μL of the desired PBS buffer was added to the powder and allowed to shake vigorously for four hours. The maximum theoretical concentration for this sample solution was 1,000 μM. After four hours of shaking, the samples were centrifuged for 10 minutes at 3,000 RPM before injecting 2 μL on the same Agilent 1260 LC-MS system to obtain the peak area.
In Table 6 below, A represents a value above 500, B represents a value between 250 and 500, C represents a value between 50 and 250, D represents a value between 10 and 50, and E represents a value below 10.

[1] = Solubility Assay in Organic Excipients; conditions: maximum upper limit 20,000 μM; for Solubility in MCT (mg/mL): medium chain triglycerides (MCT)
Protocol: as §5, §6, §7

[2] = test system: IL-2 stimulated pSTAT5 in Tall-1 T cells; assay: Inhibition of IL-2 Stimulated pSTAT5 in Tall-1 T Cells; format: cell-based; conditions: Tall-1 human T cell line, IL-2 300 ng/mL, AlphaLisa; for IC50: read-out: Tall-1 IL2 pSTAT5 (pIC50) (converted)
Summary of the method: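 Cells preincubated with compound 1 hour at 37° C, then stimulated with IL-2 (final 300 ng/mL) for 30 minutes. After lysis, pSTAT5 (Tyr694/699) read by AlphaLISA luminescence. IC50 from inhibition curves, reported as pIC50 (mean±SD).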

[3] = oil or lipid, Solubility in MCT (mg/mL)
[4] = organic solvent or mixture, Solubility in Diisopropyl adipate (mg/mL)
[5] = organic solvent or mixture, Solubility in PEG400 (mg/mL)
[6] = organic solvent or mixture, Solubility in Propylene glycol (mg/mL)

JAK1, sequence (P23458 whole entry): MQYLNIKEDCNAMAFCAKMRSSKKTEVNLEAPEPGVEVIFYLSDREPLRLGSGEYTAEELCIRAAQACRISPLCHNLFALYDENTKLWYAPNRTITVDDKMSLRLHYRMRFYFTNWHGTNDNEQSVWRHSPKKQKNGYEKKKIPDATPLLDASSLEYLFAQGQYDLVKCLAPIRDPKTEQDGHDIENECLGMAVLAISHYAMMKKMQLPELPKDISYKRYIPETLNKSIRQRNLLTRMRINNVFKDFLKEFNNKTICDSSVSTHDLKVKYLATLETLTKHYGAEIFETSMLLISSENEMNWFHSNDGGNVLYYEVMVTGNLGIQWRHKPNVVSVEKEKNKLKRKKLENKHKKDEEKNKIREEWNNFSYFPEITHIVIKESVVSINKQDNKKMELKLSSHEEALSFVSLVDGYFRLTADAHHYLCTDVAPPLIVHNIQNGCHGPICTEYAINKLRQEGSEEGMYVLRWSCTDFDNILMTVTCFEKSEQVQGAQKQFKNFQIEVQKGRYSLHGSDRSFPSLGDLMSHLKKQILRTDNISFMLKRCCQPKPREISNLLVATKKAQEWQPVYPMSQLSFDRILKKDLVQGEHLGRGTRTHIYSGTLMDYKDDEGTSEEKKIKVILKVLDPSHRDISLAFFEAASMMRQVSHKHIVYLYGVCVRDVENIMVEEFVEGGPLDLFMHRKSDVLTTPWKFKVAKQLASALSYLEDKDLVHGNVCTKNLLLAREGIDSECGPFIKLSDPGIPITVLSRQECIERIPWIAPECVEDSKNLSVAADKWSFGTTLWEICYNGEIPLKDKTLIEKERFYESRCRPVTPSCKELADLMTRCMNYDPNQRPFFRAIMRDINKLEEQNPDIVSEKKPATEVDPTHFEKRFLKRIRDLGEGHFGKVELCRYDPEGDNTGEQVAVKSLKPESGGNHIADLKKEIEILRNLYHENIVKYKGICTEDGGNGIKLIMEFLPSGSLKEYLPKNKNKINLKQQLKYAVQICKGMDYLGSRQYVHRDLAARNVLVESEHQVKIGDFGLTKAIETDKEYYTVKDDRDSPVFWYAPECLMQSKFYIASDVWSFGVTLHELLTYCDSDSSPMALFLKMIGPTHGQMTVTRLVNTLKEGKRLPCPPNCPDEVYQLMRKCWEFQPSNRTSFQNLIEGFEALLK

Row | SMILES | JAK 1 (pKi) (JAK1) | JAK 2 (pKi) (JAK2) | Ki (JAK3) [nM] | Ki (Tyk2) [nM] | solubility at 4 h (physchem; [3]) [µg/mL] | solubility at 4 h (physchem; [4]) [µg/mL] | solubility at 4 h (physchem; [5]) [µg/mL] | solubility at 4 h (physchem; [6]) [µg/mL] | JAK 3 (pKi) (JAK3) | Cacoverap Kp 10^−6 cm/sec (Caco-2 cell monolayer) | Caco Kp 10^−6 cm/sec (Caco-2 cell monolayer) | Solubility at PH 7.4 (μmol) (Aqueous Solubility Assay) | Solubility in PEG400 (mg/mL) [1] | Solubility in Diisopropyl adipate (mg/mL) [1] | Solubility in MCT (mg/mL) [1] | Solubility in Propylene glycol (mg/mL) [1] | Tall-1 IL2 pSTAT5 (pIC50) [2] | Ki (JAK1; read-out: JAK 1 (pKi) (converted)) [nM] | IC50 [2] [nM] | Tyk 2 (pKi) (Tyk2)
1 | CCNC(=O)CN1[C@@H]2CCC[C@H]1C[C@H](N(C)c1nc(Nc3cc(C)[nH]n3)cc(O[C@H]3CCOC3)n1)C2 [Compound 32] | A (A represents a pKi value ≥10 (Ki≤0.1 nM)) | A (A represents a pKi value ≥10 (Ki≤0.1 nM)) | 0.1 to 1 | 0.1 to 1 | < 5000 | > 10000 | > 10000 | > 10000 |  |  |  |  |  |  |  |  |  |  |  | 
2 | CCS(=O)(=O)N1[C@@H]2CCC[C@H]1C[C@H](N(C)c1nc(Nc3cc(C)[nH]n3)cc(OCC3COC3)n1)C2 [Compound 39, N^2-((1R,3s,5S)-9-(ethylsulfonyl)-9-azabicyclo[3.3.1]nonan-3-yl)-N2-methyl-N4-(5-methyl-1H-pyrazol-3-yl)-6-(oxetan-3-ylmethoxy)pyrimidine-2,4-diamine] | A (A represents a pKi value ≥10 (Ki≤0.1 nM)) |  |  |  |  |  |  |  | A (A represents a pKi value ≥10 (Ki≤0.1 nM)) | B (B represents a value between 20×10^−6 and 35×10^−6 cm/sec) | B (B represents a value between 15×10^−6 and 30×10^−6 cm/sec) | E (E represents a value below 10) | A (A represents a value above 10) | B (B represents a value between 5 and 10) | C (C represents a value below 5) | B (B represents a value between 5 and 10) |  |  |  | 
3 | CCS(=O)(=O)N1[C@@H]2CCC[C@H]1C[C@H](N(C)c1nc(Nc3cc(C)[nH]n3)c(F)c(C3CCOCC3)n1)C2 [Compound 45, N2-((1R,3s,5S)-9-(ethylsulfonyl)-9-azabicyclo[3.3.1]nonan-3-yl)-5-fluoro-N2-methyl-N4-(5-methyl-1H-pyrazol-3-yl)-6-(tetrahydro-2H-pyran-4-yl)pyrimidine-2,4-diamine] | B (B represents a pKi value between 9 and 10 (Ki between 1 nM and 0.1 nM)) |  |  |  |  |  |  |  | C (C represents a pKi value between 8 and 9 (Ki between 10 nM and 1 nM)) | B (B represents a value between 20×10^−6 and 35×10^−6 cm/sec) | B (B represents a value between 15×10^−6 and 30×10^−6 cm/sec) | E (E represents a value below 10) | A (A represents a value above 10) | A (A represents a value above 10) | C (C represents a value below 5) | A (A represents a value above 10) | A (A represents a pIC50 value ≥8.0) |  |  | 
4 | CCNC(=O)CN1[C@@H]2CCC[C@H]1C[C@H](N(C)c1nc(Nc3cc(C)[nH]n3)cc(C3CCCO3)n1)C2 (stereo partly drawn) [Compound 15, N-ethyl-2-((1R,3s,5S)-3-(methyl(4-((5-methyl-1H-pyrazol-3-yl)amino)-6-(tetrahydrofuran-2-yl)pyrimidin-2-yl)amino)-9-azabicyclo[3.3.1]nonan-9-yl)acetamide] | A (A represents a pKi value ≥10 (Ki≤0.1 nM)) |  |  |  |  |  |  |  | B (B represents a pKi value between 9 and 10 (Ki between 1 nM and 0.1 nM)) | B (B represents a value between 20×10^−6 and 35×10^−6 cm/sec) | B (B represents a value between 15×10^−6 and 30×10^−6 cm/sec) | A (A represents a value above 500) | B (B represents a value between 5 and 10) | A (A represents a value above 10) | C (C represents a value below 5) | A (A represents a value above 10) | A (A represents a pIC50 value ≥8.0) |  |  | 
5 | Cc1cc(Nc2cc(C3CCCO3)nc(N(C)[C@@H]3C[C@H]4CCC[C@@H](C3)N4C(=O)CC3CC3)n2)n[nH]1 (stereo partly drawn) [Compound 12, 2-cyclopropyl-1-((1R,3s,5S)-3-(methyl(4-((5-methyl-1H-pyrazol-3-yl)amino)-6-(tetrahydrofuran-2-yl)pyrimidin-2-yl)amino)-9-azabicyclo[3.3.1]nonan-9-yl)ethan-1-one] | B (B represents a pKi value between 9 and 10 (Ki between 1 nM and 0.1 nM)) |  |  |  |  |  |  |  | C (C represents a pKi value between 8 and 9 (Ki between 10 nM and 1 nM)) | C (C represents a value between 12×10^−6 and 20×10^−6 cm/sec) | B (B represents a value between 15×10^−6 and 30×10^−6 cm/sec) | C (C represents a value between 50 and 250) | B (B represents a value between 5 and 10) | B (B represents a value between 5 and 10) | C (C represents a value below 5) | B (B represents a value between 5 and 10) | A (A represents a pIC50 value ≥8.0) |  |  | 
6 | COCCC(=O)N1[C@@H]2CCC[C@H]1C[C@H](N(C)c1nc(Nc3cc(C)[nH]n3)cc(O[C@@H]3CCOC3)n1)C2 [Compound 25] |  | A (A represents a pKi value ≥10 (Ki≤0.1 nM)) | 0.1 to 1 | 0.1 to 1 | < 5000 | > 10000 | > 10000 | > 10000 |  |  |  |  |  |  |  |  |  | 0.1 to 1 | ≤ 10 | 
7 | Cc1cc(Nc2cc(OC3COC3)nc(N(C)[C@@H]3C[C@H]4CCC[C@@H](C3)N4C(=O)CC3CC3)n2)n[nH]1 [Compound 35] | A (A represents a pKi value ≥10 (Ki≤0.1 nM)) | A (A represents a pKi value ≥10 (Ki≤0.1 nM)) | 0.1 to 1 |  | < 5000 | 5000 to 10000 (≈ 10.4 to 20.8 mM) | 5000 to 10000 (≈ 10.4 to 20.8 mM) | 5000 to 10000 (≈ 10.4 to 20.8 mM) |  |  |  |  |  |  |  |  |  |  | ≤ 10 | A (A represents a pKi value ≥10 (Ki≤0.1 nM))
